Experimental data: patent publication US20090123565A9, “Copper-dependent non-traditional pro-inflammatory cytokine export and methods, compositions and kits relating thereto” (Maine Medical Center Research Institute, priority 2001, published 2009)

Experiments:
[1] = system: balloon-injured rat carotid artery; assay: Neointima formation after balloon injury of rat carotid artery (histomorphometry, I/M ratio); type: in vivo, Sprague-Dawley rats
Excerpt: Seventy-nine Sprague-Dawley male rats (Charles River Laboratories) weighing 350 to 450 grams, at 12-16 weeks of age, were included in the study. All rats in this study were handled according to the animal welfare regulation of the Maine Medical Center Research Institute, and the study protocol has been approved by the Animal Care and Use Committee of that institution. The rats received humane care in accordance with the animal use principles of the American Society of Physiology. All rats were maintained under identical conditions of temperature (21±1° C.), humidity (60±5%), and light/dark cycle, and had free access to normal rat chow.
To assess the effect of time course of copper chelation in relation to the injury on the neointima formation, 5 additional groups of rats were studied. All of them were treated with TTM for 2 weeks before the injury, and then TTM was withheld as follows: at the day of the injury (n=6) as well as 4 days (n-5), 6 days (n=7), 8 days (n=6), and 10 days (n=6) after the balloon denudation.
Rats were anesthetized with an intraperitoneal injection of ketamine (50 mg/kg) and xylazine (2.2 mg/kg). Angioplasty of the carotid artery was performed with a balloon embolectomy catheter as previously described. Briefly, the balloon catheter (2F Fogarty, Edwards Laboratories) was introduced through the left external carotid artery into the aorta, and the balloon was inflated. The vessel was damaged by passing an inflated balloon through the lumen three times. The catheter was rotated when pulling back. At the time of the final experiment, the animals were euthanized after anesthesia. A midline abdominal incision exposing the distal abdominal aorta was made. After retrograde cannulation of the abdominal aorta at its bifurcation with a 18-gauge intravenous catheter, the arterial tree was cleared of blood by perfusion with 100 ml of PBS (pH 7.2), followed by in vivo fixation with either 4% formaldehyde in phosphate-buffered saline (pH 7.2) or acetone/ethanol solution in 1:1 ratio. The entire left and right carotid arteries were harvested, including the aortic arch, innominate artery and left carotid bifurcation, and further immersed in the respective fixative. The injured left common carotid arteries were cut in three sections at least 4 mm long from the proximal, middle and distal part. From each study group, a part from the untreated contra-lateral right common carotid artery (control) was taken as well. The specimens were then dehydrated through a graded ethanol series, and embedded in paraffin for sectioning. Other arteries were not perfusion-fixed but were removed and immediately frozen. Three different segments of the left carotid artery were used for histological, morphometric, and immunohistochemical studies.
Morphometric analysis of the arterial segment was carried out in a blind manner on cross-sections stained with hematoxylin-eosin. For each animal at least 3 sections originating from the proximal, middle and distal segment of the injured vessel were quantitatively measured. Using a computerized digital microscopic planimetry algorithm (Optimas, Version 5.22), the areas within the external elastic lamina (EEL area), the internal elastic lamina (IEL area), and the luminal area were measured. Other areas were calculated as follows: medial area=EEL area−IEL area; neointimal area=IEL area−luminal area; neointima-to-media (I/M ratio=neointimal area/medial area.

[2] = system: balloon-injured rat carotid artery; assay: Cell proliferation in injured arterial wall (α-smooth muscle actin and PCNA immunostaining); type: in vivo, Sprague-Dawley rats
Procedure: In order to address the mechanisms underlying the effect of copper chelation on neointima formation, TTM was administered for 2 weeks before the balloon injury and daily after that until the animals were euthanized at the 4th and 7th day after the procedure. Accordingly, TTM-free animals euthanized 4 and 7 days after the injury were used as controls.
Proliferating cell nuclear antigen (PCNA) analysis was used to quantify the proliferative activity of cells at the balloon injury sites, and it was performed according to Siitonen et al. Briefly, PCNA-positive cells were counted in the vessel cross sections using a standard light microscope equipped with an ocular reticule (magnification ×10) and a ×40 objective. At least 500 nuclei were counted from each slide. The sections were photographed under low power, the images were video-digitized, and stored in the image analysis system (Qwin Lite 2.2, Leica). Staining results were expressed as percentage of PCNA-immunoreactive cell nuclei. Faint diffuse nuclear staining seen in some tissue sections was not included in the PCNA score.
Macrophage migration was evaluated by immunostaining with the macrophage-specific monoclonal antibody CD11b (MAC1) in acetone/ethanol fixed sections. To quantitate the extent of macrophage invasion, the area occupied by MAC1-positive cells as a percentage of the total area of the neointima was determined. The number of SMCs in the injured artery was counted at day 4, 7 and 14 by the modified method of Prescott et al. Briefly, the cross-sections were subjected to immunohistostaining against α-smooth muscle actin using a commercially available detection system (DAKO) and counter-stained with hematoxylin. The number of nuclei that were accompanied by α-smooth muscle actin-positive cytoplasm was counted at a magnification of ×40 in 10 independent sections from each rat by an observer in a blind manner.

serum ceruloplasmin = assay: Serum ceruloplasmin (surrogate marker of free copper) in rats; type: in vivo, Sprague-Dawley rats; conditions: daily 10 mg/kg TTM within 4 weeks
Procedure: Copper status in mammals treated with TTM cannot be reliably followed by measuring total serum copper level because the chelated copper will still be detected. Serum ceruloplasmin, whose synthesis is directly regulated by the bio-availability of copper to the liver, is a more accurate indicator of free copper and is used as a surrogate marker of free copper status Schosinksy et al., 1974, Clin. Chem. 20:1556-1563. Serum ceruloplasmin was assessed as baseline level before the TTM-treatment, as well as on the day of the injury and on the final day. Blood (0.5 to 1 ml) was obtained from the tail vein after anesthesia was centrifuged for 10 minutes at 2000×G and the serum was frozen at −20° C. until assay. Ceruloplasmin oxidative activity was measured as described previously (Schosinsky et al., 1974, Clin. Chem. 20:1556-1563).

[3] = rat, in vivo, 10 mg/kg
Procedure: A copper chelator, ammonium tetrathiomolybdate (Sigma Aldrich), was administered daily in a dose of 10 mg/kg. The total daily amount was freshly dissolved into 45 ml water and was dispensed to the rats in the drinking water. To assess the effect of copper chelation on neointimal formation after common carotid artery denudation, TTM was given as follows: TTM administration started 2 weeks before the injury in 6 rats; 1 week before the injury in 6 rats; there was no pre-injury treatment with TTM in 5 rats. All those rats were treated with TTM for 2 weeks after the balloon injury. Five rats, which underwent the surgical procedure and were never treated with TTM, served as controls.

ceruloplasmin = conditions: cited from earlier work

Compound: [NH4+].[NH4+].[SH-].[SH-].[S]=[Mo]=[S] [TTM, ammonium tetrathiomolybdate]
- neointima development, hematoxylin-eosin, vs controls ([1]; 4 days after the injury): no difference
- intima/media ratio ([1]; 14 days after balloon injury, TTM 10 mg/kg daily started 1 week before injury, 2 weeks after, n=6, controls 1.76±0.105): 0.96±0.121
- intima/media ratio ([1]; 14 days after balloon injury, TTM 10 mg/kg daily started 2 weeks before injury, 2 weeks after, n=6, controls 1.76±0.105): 0.83±0.006
- intima/media ratio ([1]; 14 days after balloon injury, TTM 10 mg/kg daily started on the day of injury, 2 weeks after, n=5, controls 1.76±0.105): 1.27±0.04
- reduction in the neointima formation in the rat carotid artery ([1]; TTM administration before and after injury, vs controls): up to 53%
- intima/media ratio ([1]; TTM started 2 weeks before injury, continued 6 days after): 0.76±0.06
- intima/media ratio ([1]; TTM started 2 weeks before injury, continued 8 days after): 0.83±0.1
- intima/media ratio ([1]; TTM started 2 weeks before injury, continued 10 days after): 0.79±0.013
- intima/media ratio ([1]; TTM started 2 weeks before injury, stopped at the day of the injury): 1.29±0.19
- neointima development, hematoxylin-eosin, vs controls ([1]; day 7 after the injury): more pronounced in the controls
- I/M ratio compared to the controls ([1]; each TTM regimen, 14 days after balloon injury (FIG. 6E)): significant decrease
- SMA-positive cells in the neointima vs TTM-free rats ([2]; 7 and 14 days after the injury): significantly less abundant
- PCNA-positive cells in the neointimal area ([2]; 14 days after balloon angioplasty, 10 mg/kg, 2 weeks before/2 weeks after injury, n=5, P<0.05): significant reduction
- SMA-positive cells in the neointima vs TTM-free rats ([2]; day 4 after the balloon injury): No significant difference
- ceruloplasmin reduction to (serum ceruloplasmin): 0-20 % of its baseline level
- effects upon visual inspection of the animals [3]: without detectable effects
- time to induce copper deficiency (ceruloplasmin; humans, safely): 2-4 weeks
- ceruloplasmin reduction to (ceruloplasmin; patients with cancer, withstood for months and years (Brewer et al., 2000)): 20 % of baseline
